Data published in patent US20240116862A1, “SULFUR-CONTAINING LIPIDS” (THE UNIVERSITY OF BRITISH COLUMBIA, priority 2021, published 2024).

What was measured:
[1] = Physicochemical characteristics of lipid nanoparticle (LNP) entrapping siRNA (dynamic light scattering, Ribogreen entrapment, apparent pKa); details: for Size: number-weighted average, mean of n≥3; for Entrapment: siRNA entrapment, LNP sulfur lipid/DSPC/cholesterol/PEG-lipid 50/10/38.5/1.5, N/P 3
Experimental: (§1) LNP-mRNA systems were prepared as previously described (Kulkarni, J. A. et al. ACS Nano 12, 4787-4795 (2018); and Kulkarni, J. A. et al. Nanoscale 11, 9023-9031 (2019), each of which is incorporated herein by reference). Briefly, lipid components (ionizable cationic lipid, cholesterol, DSPC, and PEG-lipid) at appropriate ratios were dissolved in ethanol to a concentration of 10 mM total lipid. Luciferase encoding mRNA was dissolved in 25 mM sodium acetate pH 4 buffer to achieve an amine-to-phosphate (N/P) ratio of 6. The two solutions were mixed through a T-junction mixer at a total flow rate of 20 mL/min, and a flow rate ratio of 3:1 v/v (corresponding to 15:5 mL/min aqueous:organic phase). The resulting suspension was subsequently dialyzed against PBS pH 7.4. siRNAs were dissolved in 25 mM sodium acetate pH 4 buffer to achieve an amine-to-phosphate (N/P) ratio of 3. The two solutions were mixed through a T-junction mixer at a total flow rate of 20 mL/min, and a flow rate ratio of 3:1 v/v (corresponding to 15:5 mL/min aqueous:organic phase). The resulting suspension was subsequently dialyzed against PBS pH 7.4.
(§2) The hydrodynamic diameter and size distribution of LNP-mRNA and LNP-siRNA systems were analyzed by dynamic light scattering using a Malvern Zetasizer Nano ZS. Data presented as number-weighted average size. Lipid concentrations were measured using the Cholesterol E Total-Cholesterol assay (Wako Diagnostics, Richmond, VA). RNA concentration and entrapment were measured using the Quant-iT Ribogreen RNA assay as described elsewhere (Kulkarni, J. A. et al. ACS Nano 12, 4787-4795 (2018); and Kulkarni, J. A. et al. Nanoscale 11, 9023-9031 (2019)).
LNPs were prepared composed of ionizable cationic sulfur-containing lipid/DSPC/cholesterol/PEG-lipid at molar ratios of 50/10/38.5/1.5 and siRNA (at N/P ratio of 3) as described in the above Methods and Materials. The data are based on n≥3 experiments and values reported are means±SD.
Compound 13 (MF019; see Example 1) produced siRNA formulations having desirable physicochemical characteristics as shown in Table 3 below. The polydispersity index (PDI) of the resulting nanoparticles was <0.1, with an average LNP size ˜45 nm.

[2] = Physicochemical characteristics of LNPs comprising mRNA and sulfur lipid (dynamic light scattering, Ribogreen entrapment)
Experimental: as §1, §2
LNPs were prepared comprising ionizable cationic sulfur-containing lipid/DSPC/cholesterol/PEG-lipid at molar ratios of 50/10/38.5/1.5 and mRNA (at N/P ratio of 6) as described in the Materials and Methods. The size, PDI and entrapment percentage were determined as set out in the Materials and Methods and the results are shown in Table 2 below. The data are based on n≥3 experiments and values reported are means±SD. […]

Factor VII = assay: In vivo analysis of Factor VII (FVII) silencing using LNP-siRNA systems; details: 0.3 mg/kg LNP-siFVII intravenous, mice, 24 h, FIG. 6
Experimental: FVII knockdown study were performed as previously described.^3 In brief, LNP-siRNA were administered intravenously into WT mice (Charles River Laboratories, Wilmington, MA). Animals were euthanized after 24 h, blood was collected, serum was separated from whole blood using Microtainer Serum Separator tubes (Becton Dickinson, Franklin Lakes, NJ), and the residual serum FVII levels were determined. All procedures were approved by the Animal Care Committee at the University of British Columbia and were performed in accordance with guidelines established by the Canadian Council on Animal Care.
The graph depicts residual Factor VII following intravenous administration of various doses of the LNP-siFVII (see Materials and Methods above).

HepG2 cells = assay: In vitro analysis of luciferase expression using LNP-mRNA systems; type: cell-based; details: LNP-mRNA (firefly luciferase) at 0.125, 0.25, 0.5 and 1 μg/mL, 24 hours post treatment, versus KC2 LNP
Experimental: To assess LNP-mRNA efficacy in vitro, HepG2 cells were seeded at 8,000 cells/well in 96-well plates and cultured in DMEM supplemented with 10% FBS. LNP systems entrapping luciferase mRNA were added at various concentrations and luciferase expression was analyzed 24 hours post-treatment using the Steady-Glo Luciferase kit (Promega, Madison, WI).
The in vitro gene expression efficacy of LNP systems entrapping mRNA encoding for firefly luciferase was assessed. HepG2 cells were treated at different doses (0.125, 0.25, 0.5 and 1 μg/mL) using the above LNP-mRNA systems. Luciferase expression was analyzed 24 hours post treatment. Ionizable cationic lipid used was either KC2 (DLin-KC2-DMA) or compound 13 (MF019; see Example 1). In each case, the RLU was higher for compound 13 (MF019) than for KC2.

[3] = LNP sulfur lipid/DSPC/cholesterol/PEG-lipid 50/10/38.5/1.5, siRNA, N/P 3

Compound `CCCCCSCSCCCCCCCCC(CCCCCCCCSCSCCCCC)OC(=O)CCCN(C)C` [compound 13, 6,8,26,28-tetrathiatritriacontan-17-yl 4-(dimethylamino)butanoate] has a PDI [1, 3] of 0.028, a pKa [1, 3] of 6.41 and a Size [1, 3] of 43 nm. The Size ([1]; LNP sulfur lipid/DSPC/cholesterol/PEG-lipid 50/10/38.5/1.5, siRNA, N/P 3, listed as Compound 13) was ~45 nm, the “polydispersity index (PDI)” value ([1]; LNP with siRNA, N/P 3) was < 0.1 and the nucleic acid entrapment ([1]; formulated in a lipid nanoparticle, nucleic acid not specified) was “above 93%”. For the same compound, the Entrapment [1] was >93%, the Entrapment ([1]; listed as Compound 13) was > 93% and the PDI ([2]; LNP sulfur lipid/DSPC/cholesterol/PEG-lipid 50/10/38.5/1.5, mRNA, N/P 6) was 0.054. The Size ([2]; LNP sulfur lipid/DSPC/cholesterol/PEG-lipid 50/10/38.5/1.5, mRNA, N/P 6, number-weighted average, mean of n≥3) was 79 nm, the Entrapment ([2]; mRNA entrapment, LNP sulfur lipid/DSPC/cholesterol/PEG-lipid 50/10/38.5/1.5, N/P 6) was >93% and the “Factor VII knock down (residual serum FVII)” value (Factor VII) was “almost complete knock down”. For the same compound, the “Luciferase expression (RLU) compared with KC2” value (HepG2 cells) was “higher”.
